The molecules below were run on HIV-1 (H9IIIB strain) (assay: Cell-Based HIV Infection Assay Using a Reporter (MT4-GFP cells)). Details: Human immunodeficiency virus 1, inflection point (IP) of viral growth inhibition; MT4-GFP cells infected with HIV-1 H9IIIB; 50% normal human serum; mean of at least two independent experiments; read-out: Cell Based IP (50% NHS).
Method in brief: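 Inflection point from a 4-parameter curve of % viral growth inhibition, normalised to DMSO and triple-drug controls, using the 48 h/24 h ratio of GFP-positive cells (R0). MT4-GFP cells pre-infected 24 h with HIV-1 H9IIIB at low MOI; compounds tested in 50% normal human serum, 0.4% DMSO; mean of ≥2 experiments.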

Q: With `CCC(CC)[C@H](c1ccc(Cl)cc1)[C@H](NC(=O)OC)C(=O)Nc1cccc(F)c1CCC1CNC2CCCS(=O)(=O)N1C2` (stereo partly drawn) [Example 71, methyl [(1S,2R)-2-(4-chlorophenyl)-1-({2-[2-(2,2-dioxido-2-thia-1,7-diazabicyclo[4.3.1]dec-9-yl)ethyl]-3-fluorophenyl}carbamoyl)-3-ethylpentyl]carbamate] as the molecule, how does the EC50 read?
A: Its EC50 is 41 nM.

Q: How did the EC50 turn out when `CC(C)Oc1cnc([C@H](c2ccc(Cl)cc2)[C@H](N)C(=O)Nc2cncc(F)c2CC[C@H]2CN[C@@H]3CCCS(=O)(=O)N2C3)cn1` [Example 263, (βR)-4-chloro-N-(4-{2-[(6R,9S)-2,2-dioxido-2-thia-1,7-diazabicyclo[4.3.1]dec-9-yl]ethyl}-5-fluoropyridin-3-yl)-β-[5-(1-methylethoxy)pyrazin-2-yl]-L-phenylalaninamide] was run?
A: The EC50 was 5.2 nM.

Q: Which EC50 does the source give for `COC(=O)N[C@H](C(=O)N[C@H]1CCCC[C@@H]1CC[C@H]1CN[C@@H]2CCCS(=O)(=O)N1C2)C(c1ccc(F)cc1)c1ccc(F)cc1` [Example 92, methyl [(1S)-1-[bis(4-fluorophenyl)methyl]-2-{[(1S,2R)-2-{2-[(6R,9S)-2,2-dioxido-2-thia-1,7-diazabicyclo[4.3.1]dec-9-yl]ethyl}cyclohexyl]amino}-2-oxoethyl]carbamate] here?
A: Its EC50 is 56 nM.

Q: How did the EC50 turn out when `CC(C)[C@H](c1ccc(Cl)cc1)[C@H](N)C(=O)Nc1cccc(F)c1CCC1CNC2CCCS(=O)(=O)N1C2` (stereo partly drawn) [Example 38, (βR)-4-chloro-N-{2-[2-(2,2-dioxido-2-thia-1,7-diazabicyclo[4.3.1]dec-9-yl)ethyl]-3-fluorophenyl}-β-(1-methylethyl)-L-phenylalaninamide] was run?
A: Its EC50 is 28 nM.

Q: `C[C@@H]1CC([C@H](c2ccc(Cl)c(F)c2)[C@H](N)C(=O)Nc2cccc(F)c2CC[C@H]2CN[C@@H]3CCCS(=O)(=O)N2C3)C[C@H](C)O1` (stereo partly drawn) [Example 165, (βR)-4-chloro-β-[(2R,6S)-2,6-dimethyltetrahydro-2H-pyran-4-yl]-N-(2-{2-[(6R,9S)-2,2-dioxido-2-thia-1,7-diazabicyclo[4.3.1]dec-9-yl]ethyl}-3-fluorophenyl)-3-fluoro-L-phenylalaninamide] was tested. Which EC50 did it give?
A: The EC50 was 7.5 nM.

Q: With `COC(=O)N[C@H](C(=O)Nc1cccc(F)c1CCC1CNC2CCCS(=O)(=O)N1C2)[C@H](c1ccc(F)cc1)C1CC(F)(F)C1` (stereo partly drawn) [Example 65, methyl [(1S,2S)-2-(3,3-difluorocyclobutyl)-1-({2-[2-(2,2-dioxido-2-thia-1,7-diazabicyclo[4.3.1]dec-9-yl)ethyl]-3-fluorophenyl}carbamoyl)-2-(4-fluorophenyl)ethyl]carbamate] as the molecule, how does the EC50 read?
A: Its EC50 is 47 nM.

Q: With `COC(=O)N[C@H](C(=O)Nc1cccc(F)c1CC[C@H]1CN[C@@H]2CCCS(=O)(=O)N1C2)[C@]1(c2ccc(Cl)cc2)CC[C@H](OC)CC1` [Example 125, methyl {(1S)-1-[cis-1-(4-chlorophenyl)-4-methoxycyclohexyl]-2-[(2-{2-[(6R,9S)-2,2-dioxido-2-thia-1,7-diazabicyclo[4.3.1]dec-9-yl]ethyl}-3-fluorophenyl)amino]-2-oxoethyl}carbamate] as the molecule, how does the EC50 read?
A: The EC50 was 71 nM.

Q: Which EC50 does the source give for `COC(=O)N[C@H](C(=O)Nc1cccc(F)c1CC[C@H]1CN[C@@H]2CCCS(=O)(=O)N1C2)[C@@H](c1ccc(F)cc1)c1cnc(OC(C)C)nc1` [Example 206, methyl [(1S)-2-[(2-{2-[(6R,9S)-2,2-dioxido-2-thia-1,7-diazabicyclo[4.3.1]dec-9-yl]ethyl}-3-fluorophenyl)amino]-1-{(S)-(4-fluorophenyl)[2-(1-methylethoxy)pyrimidin-5-yl]methyl}-2-oxoethyl]carbamate] here?
A: Its EC50 is 16 nM.

Q: For `CS(=O)(=O)N1CCC([C@H](c2ccc(F)cc2)[C@H](N)C(=O)Nc2cccc(F)c2CC[C@H]2CN[C@@H]3CCCS(=O)(=O)N2C3)CC1` [Example 186, (βR)-N-(2-{2-[(6R,9S)-2,2-dioxido-2-thia-1,7-diazabicyclo[4.3.1]dec-9-yl]ethyl}-3-fluorophenyl)-4-fluoro-β-[1-(methylsulfonyl)piperidin-4-yl]-L-phenylalaninamide], which EC50 is on record?
A: Its EC50 is 33 nM.

Q: Which EC50 does the source give for `CCCN[C@H](C(=O)N[C@H]1CCC[C@@H]1CC[C@H]1CN[C@@H]2CCCS(=O)(=O)N1C2)[C@@H](c1ccc(Cl)cc1)C1CCOC(C)(C)C1` (stereo partly drawn) [Example 177, (βR)-4-chloro-β-(2,2-dimethyltetrahydro-2H-pyran-4-yl)-N-[(1S,2R)-2-{2-[(6R,9S)-2,2-dioxido-2-thia-1,7-diazabicyclo[4.3.1]dec-9-yl]ethyl}cyclopentyl]-Nα-propyl-L-phenylalaninamide] here?
A: Its EC50 is 400 nM.

Q: With `CC(C)O[C@H]1CC[C@H]([C@H](c2ccc(Cl)cc2)[C@H](N)C(=O)Nc2cncc(F)c2CC[C@H]2CN[C@@H]3CCCS(=O)(=O)N2C3)CC1` [Example 250, (βR)-4-chloro-N-(4-{2-[(6R,9S)-2,2-dioxido-2-thia-1,7-diazabicyclo[4.3.1]dec-9-yl]ethyl}-5-fluoropyridin-3-yl)-β-[(1r,4R)-4-(1-methylethoxy)cyclohexyl]-L-phenylalaninamide] as the molecule, how does the EC50 read?
A: Its EC50 is 7.7 nM.

Q: For `N[C@H](C(=O)N[C@H]1CCCC[C@@H]1CC[C@H]1CN[C@@H]2CCCS(=O)(=O)N1C2)C(c1ccc(F)cc1)c1ccc(F)cc1` [Example 93, N-[(1S,2R)-2-{2-[(6R,9S)-2,2-dioxido-2-thia-1,7-diazabicyclo[4.3.1]dec-9-yl]ethyl)cyclohexyl]-4-fluoro-β-(4-fluorophenyl)-L-phenylalaninamide], which EC50 is on record?
A: The EC50 was 56 nM.

Q: How did the EC50 turn out when `COC(=O)N[C@H](C(=O)N[C@H]1CCC[C@@H]1CC[C@H]1CN[C@@H]2CCCS(=O)(=O)N1C2)[C@H](c1cncc(F)c1)c1ccc(Cl)c(F)c1` [Example 77, methyl [(1S,2S)-2-(4-chloro-3-fluorophenyl)-1-{[(1S,2R)-2-{2-[(6R,9S)-2,2-dioxido-2-thia-1,7-diazabicyclo[4.3.1]dec-9-yl]ethyl}cyclopentyl]carbamoyl}-2-(5-fluoropyridin-3-yl)ethyl]carbamate] was run?
A: Its EC50 is 57 nM.

Q: For `N[C@H](C(=O)Nc1cccc(F)c1CCC1CNC2CCCS(=O)(=O)N1C2)[C@H](c1cncc(F)c1)c1ccc(Cl)c(F)c1` (stereo partly drawn) [Example 44, (βS)-4-chloro-N-{2-[2-(2,2-dioxido-2-thia-1,7-diazabicyclo[4.3.1]dec-9-yl)ethyl]-3-fluorophenyl}-3-fluoro-β-(5-fluoropyridin-3-yl)-L-phenylalaninamide], which EC50 is on record?
A: Its EC50 is 4.5 nM.

Q: Which EC50 does the source give for `COCCN[C@H](C(=O)N[C@H]1CCC[C@@H]1CC[C@H]1CN[C@@H]2CCCS(=O)(=O)N1C2)[C@@H](c1ccc(Cl)cc1)C1CCOC(C)(C)C1` (stereo partly drawn) [Example 182, (βR)-4-chloro-β-(2,2-dimethyltetrahydro-2H-pyran-4-yl)-N-[(1S,2R)-2-{2-[(6R,9S)-2,2-dioxido-2-thia-1,7-diazabicyclo[4.3.1]dec-9-yl]ethyl}cyclopentyl]-Nα-(2-methoxyethyl)-L-phenylalaninamide] here?
A: The EC50 was 70 nM.

Q: How did the EC50 turn out when `N[C@H](C(=O)Nc1cccc(F)c1CCC1CNC2CCCS(=O)(=O)N1C2)[C@H](c1cncc(Cl)c1)c1ccc(Cl)c(F)c1` (stereo partly drawn) [Example 72, (βS)-4-chloro-β-(5-chloropyridin-3-yl)-N-{2-[2-(2,2-dioxido-2-thia-1,7-diazabicyclo[4.3.1]dec-9-yl)ethyl]-3-fluorophenyl}-3-fluoro-L-phenylalaninamide] was run?
A: The EC50 was 5.1 nM.

Q: For `COC(=O)N[C@H](C(=O)Nc1cccc(F)c1CC[C@H]1CN[C@@H]2CCC(C)(C)S(=O)(=O)N1C2)[C@@H](c1ccc(F)cc1)[C@H]1C[C@@H](C)O[C@@H](C)C1` [Example 102, methyl {(1S)-2-[(2-{2-[(6R,9S)-3,3-dimethyl-2,2-dioxido-2-thia-1,7-diazabicyclo[4.3.1]dec-9-yl]ethyl}-3-fluorophenyl)amino]-1-[(R)-[(2R,4r,6S)-2,6-dimethyltetrahydro-2H-pyran-4-yl](4-fluorophenyl)methyl]-2-oxoethyl}carbamate], which EC50 is on record?
A: The EC50 was 32 nM.

Q: `COC(=O)N[C@H](C(=O)Nc1cccc(F)c1CC[C@H]1CN[C@@H]2CCCS(=O)(=O)N1C2)[C@@H](c1ccc(Cl)c(F)c1)C1C[C@@H](C)O[C@@H](C)C1` (stereo partly drawn) [Example 16, Methyl {(1S,2R)-2-(4-chloro-3-fluorophenyl)-2-[(2R,6S)-2,6-dimethyltetrahydro-2H-pyran-4-yl]-1-[(2-{2-[(6R,9S)-2,2-dioxido-2-thia-1,7-diazabicyclo[4.3.1]dec-9-yl]ethyl}-3-fluorophenyl)carbamoyl]ethyl}carbamate] was tested. Which EC50 did it give?
A: Its EC50 is 4.9 nM.

Q: Which EC50 does the source give for `N[C@H](C(=O)Nc1cccc(F)c1CC[C@H]1CN[C@@H]2CCCS(=O)(=O)N1C2)[C@@H](c1ccc(Cl)cc1)c1csc(C(F)(F)F)n1` [Example 251, (βR)-4-chloro-N-(2-{2-[(6R,9S)-2,2-dioxido-2-thia-1,7-diazabicyclo[4.3.1]dec-9-yl]ethyl}-3-fluorophenyl)-β-[2-(trifluoromethyl)-1,3-thiazol-4-yl]-L-phenylalaninamide] here?
A: Its EC50 is 9.2 nM.

Q: Which EC50 does the source give for `O=C(C[C@@H](c1ccc(Cl)c(F)c1)N1CCOCC1)N[C@H]1CCC[C@@H]1CC[C@H]1CN[C@@H]2CCCS(=O)(=O)N1C2` [Example 75, (3S)-3-(4-chloro-3-fluorophenyl)-N-[(1S,2R)-2-{2-[(6R,9S)-2,2-dioxido-2-thia-1,7-diazabicyclo[4.3.1]dec-9-yl]ethyl}cyclopentyl]-3-morpholin-4-ylpropanamide] here?
A: Its EC50 is 110 nM.

Q: `COC(=O)N[C@H](C(=O)Nc1cccc(F)c1CCC1CNC2CCCS(=O)(=O)N1C2)[C@@H](c1ccc(Cl)cc1)c1ccnc(OC(C)C)c1` (stereo partly drawn) [Example 122, methyl {(1S,2S)-2-(4-chlorophenyl)-1-({2-[2-(2,2-dioxido-2-thia-1,7-diazabicyclo[4.3.1]dec-9-yl)ethyl]-3-fluorophenyl}carbamoyl)-2-[2-(1-methylethoxy)pyridin-4-yl]ethyl}carbamate] was tested. Which EC50 did it give?
A: Its EC50 is 6.7 nM.

From patent US10138255B2, “Piperazine derivatives as HIV protease inhibitors” (Merck Sharp & Dohme Corp., priority 2014, dated 2018)
